This is an account of results in patent US20100130512A1, “FUSED-RING H[…]” (RENSSELAER POLYTECHNIC INSTITUTE, priority 2007, published 2010).

Test [1] has as its target T1, human opioid receptor (δ) (Homo sapiens, UniProt P41143).
T1 construct: expressed in transfected cells
The test is described as follows: Opioid receptor binding, [3H]naltrindole (δ).

The target of test [2] is T2, human opioid receptor (μ) (Homo sapiens, UniProt P35372).
T2 construct: expressed in transfected cells
The test is described as follows: Opioid receptor binding, [3H]DAMGO (μ).

In test [3] the target is T3, human opioid receptor (κ) (Homo sapiens, UniProt P41145).
T3 construct: expressed in transfected cells
In words: Opioid receptor binding, [3H]U69,593 (κ).

In test [4] the target is T4, human μ opioid receptor (Homo sapiens, UniProt P35372).
T4 construct: expressed in transfected cells
The test is described as follows: [35S]GTPγS binding assay, μ. The class given is biochemical. Conditions: agonist/antagonist character; antagonism vs 200 nM DAMGO.

For test [5], the target named is T5, human κ opioid receptor (Homo sapiens, UniProt P41145).
T5 construct: expressed in transfected cells
In words: [35S]GTPγS binding assay, κ. In kind it is biochemical. Conditions: agonist/antagonist character; antagonism vs 100 nM U50,488. On the technique in general: GTPγS is a poorly hydrolysed GTP analogue; its binding reports G protein activation.

The subject of test [6] is mice. Conditions: cited from earlier work; for duration of action: 1 mg/kg ip in mice.
Test [7] concerns guinea pig μ receptors. To be noted: cyclazocine series; μ printed as ∥; cited from earlier work.
The subject of test [8] is κ opioid receptors. To be noted: cyclazocine series; cited from earlier work.
Where [9] appears, read: CHO cell membranes, 1 nM [3H]U69,593, mean±SEM, read-out: Ki [3H]U69,593 (K).
[10] abbreviates: read-out: Ki [3H]Naltrindole (δ), CHO cell membranes, 0.2 nM [3H]naltrindole, mean±SEM.
Setting [11] is: read-out: Ki [3H]DAMGO (μ), CHO cell membranes, […] [3H]DAMGO, mean±SEM.

Read-outs that look alike come from different tables or passages of the source.

T1 sequence (P41143 whole entry): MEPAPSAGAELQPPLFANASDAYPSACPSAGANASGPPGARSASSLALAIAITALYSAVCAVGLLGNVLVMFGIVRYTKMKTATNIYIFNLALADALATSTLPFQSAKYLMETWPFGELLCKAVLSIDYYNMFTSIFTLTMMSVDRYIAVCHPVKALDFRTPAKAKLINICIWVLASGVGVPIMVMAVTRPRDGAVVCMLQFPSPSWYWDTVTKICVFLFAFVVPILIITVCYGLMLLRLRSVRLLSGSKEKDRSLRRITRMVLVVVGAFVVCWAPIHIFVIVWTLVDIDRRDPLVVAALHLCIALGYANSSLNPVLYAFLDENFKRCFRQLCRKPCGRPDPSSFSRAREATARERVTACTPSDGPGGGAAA
T4 sequence (P35372 whole entry): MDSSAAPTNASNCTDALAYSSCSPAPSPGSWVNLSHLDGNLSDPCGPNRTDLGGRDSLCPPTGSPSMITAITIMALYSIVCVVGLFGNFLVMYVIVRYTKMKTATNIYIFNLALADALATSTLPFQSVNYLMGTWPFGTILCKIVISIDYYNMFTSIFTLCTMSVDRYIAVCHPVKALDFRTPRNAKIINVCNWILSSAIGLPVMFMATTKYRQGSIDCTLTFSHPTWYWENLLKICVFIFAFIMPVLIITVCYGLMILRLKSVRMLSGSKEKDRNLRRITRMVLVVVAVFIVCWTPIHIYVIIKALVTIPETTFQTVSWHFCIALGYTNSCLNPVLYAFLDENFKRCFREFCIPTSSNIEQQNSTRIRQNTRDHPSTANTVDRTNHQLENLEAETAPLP
T2 sequence (P35372 whole entry): as above
T3 sequence (P41145 whole entry): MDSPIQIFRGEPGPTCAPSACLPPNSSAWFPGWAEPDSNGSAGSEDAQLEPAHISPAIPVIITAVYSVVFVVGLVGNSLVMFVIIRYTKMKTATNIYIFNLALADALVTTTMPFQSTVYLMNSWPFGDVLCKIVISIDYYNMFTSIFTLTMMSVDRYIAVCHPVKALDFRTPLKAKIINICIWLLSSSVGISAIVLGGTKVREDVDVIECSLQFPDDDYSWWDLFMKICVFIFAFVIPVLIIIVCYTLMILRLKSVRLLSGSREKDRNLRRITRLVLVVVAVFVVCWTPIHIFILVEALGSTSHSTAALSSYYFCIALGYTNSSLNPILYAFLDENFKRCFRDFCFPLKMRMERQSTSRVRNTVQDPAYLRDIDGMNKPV
T5 sequence (P41145 whole entry): as above

By Ki is commonly meant the dissociation constant of the complex between target and ligand, obtained from inhibition or displacement. For the molecule `CC1C2Cc3cc4ncnc(NCc5ccccc5)c4cc3C1(C)CCN2CC1CC1` (centres unmarked) [Example 13], the Ki is 1000 ± 37 nM in test [1], 88 ± 7.2 nM in test [2] and 48 ± 2.3 nM in test [3] (setting [9]).

On to `CC1C2Cc3cc4ncnc(N)c4cc3C1(C)CCN2CC1CC1` (centres unmarked) [Example 11], for which the inhibition at 10 µM in test [1] (read-out: inh. of [3H]Naltrindole (δ) binding, at 10 μM) was determined as 47%. The Ki worked out at 890 ± 39 nM in test [2] and 560 ± 23 nM in test [3] (setting [9]).

Turning to `C[C@H]1C2Cc3cc4nn[nH]c4cc3[C@@]1(C)CCN2CC1CC1` [Example 30], the “GTPγS data, MOR” value in test [4] is “antagonist”. Moreover, the “GTPγS data, KOR” value in test [5] is recorded as “agonist”. Also, the Ki in test [1] (setting [10]) is 51 ± 7.8 nM; in test [2] (setting [11]), 10 ± 1 nM; in test [3] (setting [9]) it was 0.81 ± 0.19 nM.

On to `C[C@H]1C2Cc3ccc4c(N)onc4c3[C@@]1(C)CCN2CC1CC1` [Example 43], for which the Ki in test [1] turned out to be 99 ± 10 nM; in test [2] it was 0.75 ± 0.038 nM; in test [3] (setting [9]), 0.65 ± 0.005 nM.

For `C[C@H]1[C@H]2Cc3ccc(O)cc3[C@]1(C)CCN2CC1CC1` [cyclazocine], the duration of action in test [6] was 2 h.

As to `C[C@H]1C2Cc3ccc4c(=O)[nH]cnc4c3[C@@]1(C)CCN2CC1CC1` [Example 8], the values for the Ki in test [1] (setting [10]), in test [2] (setting [11]) and in test [3] (setting [9]) were 2000 ± 49 nM, 270 ± 33 nM and 160 ± 7.1 nM, respectively.

Turning to `CC1C2Cc3ccc4c(N)ncnc4c3C1(C)CCN2CC1CC1` (centres unmarked) [Example 10], the “GTPγS data, MOR” value in test [4] was “MOR and KOR antagonist”. Further, in test [5], the “GTPγS data, KOR” value is “MOR and KOR antagonist”. The Ki in test [1] stood at 120 ± 8.5 nM; in test [2], 0.55 ± 0.018 nM; in test [3] (setting [9]), 1 ± 0.071 nM.

Consider `C[C@H]1C2Cc3cc(N)c(C(N)=O)cc3[C@@]1(C)CCN2CC1CC1` (racemic) [Example 7, Cis-(±)-3-(cyclopropylmethyl)-1,2,3,4,5,6-hexahydro-6,11-dimethyl-9-amino-2,6-methano-3-benzazocine-8-carboxamide], for which the inhibition constant (Ki) in test [1] was found to be 2000 ± 12 nM; in test [2] it was 88 ± 5.2 nM; in test [3] it was 32 ± 1.7 nM.

In the case of `CC1C2Cc3ccc4c(NCc5ccccc5)ncnc4c3C1(C)CCN2CC1CC1` (centres unmarked) [Example 12], the Ki in test [1] was found to be 1500 ± 68 nM; in test [2] it was 44 ± 0.76 nM; in test [3] (setting [9]), 240 ± 1.8 nM.

With `C[C@H]1C2Cc3ccc(C(N)=O)cc3[C@@]1(C)CCN2CC1CC1` [Example 8-CAC, 8-carboxamidocyclazocine], the “affinity for μ opioid receptors” value in test [7] is given as “high affinity”. Further, in test [6], the duration of action is given as 15 h. Moreover, the antinociception activity entry in test [6] (studies in vivo) was “high antinociception activity”. Also, in test [8], the “affinity for κ opioid receptors” value is listed as “high affinity”.

For `CC1C2Cc3cc4ncnc(NCCc5ccc(-c6ccccc6)cc5)c4cc3C1(C)CCN2CC1CC1` (centres unmarked) [Example 15], the Ki in test [1] is 410 ± 61 nM; in test [2], 28 ± 1.9 nM; in test [3] (setting [9]) it was 140 ± 4.4 nM.

With `CC1C2Cc3cc4[nH]c(=O)[nH]c4cc3C1(C)CCN2CC1CC1` (centres unmarked) [Example 36], the Ki in test [1] stood at 730 ± 8.3 nM; in test [2], 60 ± 7.9 nM; in test [3] (setting [9]), 12 ± 1.3 nM.

Consider `CC1C2Cc3ccc(C(N)=O)c(N)c3C1(C)CCN2CC1CC1` (mixture of isomers) [Example 6, Cis-(±)-3-(cyclopropylmethyl)-1,2,3,4,5,6-hexahydro-6,11-dimethyl-7-amino-2,6-methano-3-benzazocine-8-carboxamide], for which the Ki stood at 35 ± 0.036 nM in test [1], 0.55 ± 0.029 nM in test [2] and 0.7 ± 0.036 nM in test [3].

In the case of `C[C@H]1C2Cc3ccc4[nH]nnc4c3[C@@]1(C)CCN2CC1CC1` [Example 29], the “GTPγS data, MOR” value in test [4] is listed as “antagonist”. Further, in test [5], the “GTPγS data, KOR” value is listed as “agonist”. The Ki in test [1] (setting [10]) was found to be 46 ± 2.6 nM; in test [2] (setting [11]), 1.4 ± 0.043 nM; in test [3] (setting [9]), 0.23 ± 0.009 nM.

Consider `C[C@H]1C2Cc3cc4nc[nH]c(=O)c4cc3[C@@]1(C)CCN2CC1CC1` [Example 9], for which the values for the Ki in test [1] (setting [10]), in test [2] (setting [11]) and in test [3] (setting [9]) were 780 ± 32 nM, 170 ± 6.7 nM and 12 ± 0.65 nM, respectively.

For `CC1C2Cc3cc4nc[nH]c4cc3C1(C)CCN2CC1CC1` (centres unmarked) [Example 34], in test [4], the “GTPγS data, MOR” value is “MOR weak agonist/antagonist, KOR”. Further, the Ki in test [1] worked out at 5.1 ± 0.65 nM; in test [2], 0.31 ± 0.05 nM; in test [3] (setting [9]), 0.063 ± 0.0016 nM.

As for `CC1C2Cc3ccc4c(NCCc5ccc(-c6ccccc6)cc5)ncnc4c3C1(C)CCN2CC1CC1` (centres unmarked) [Example 14], the Ki in test [1] worked out at 52 ± 2.6 nM; in test [2] it was 6.9 ± 0.33 nM; in test [3] (setting [9]) it was 8.6 ± 1.5 nM.

Turning to `Cc1nc2cc3c(cc2[nH]1)CC1C(C)C3(C)CCN1CC1CC1` (centres unmarked) [Example 35], the “GTPγS data, MOR” value in test [4] is recorded as “MOR agonist/weak antagonist; KOR”. In addition, the “GTPγS data, KOR” value in test [5] is recorded as “agonist”. Moreover, the values for the Ki in test [1], in test [2] and in test [3] (setting [9]) were 18 ± 0.9 nM, 0.77 ± 0.051 nM and 0.05 ± 0.002 nM, respectively.
